kcat/KM data for 24 substances are collected here from paper PMC7915765, “Biochemical Characterization, Specificity and Inhibition Studies of HTLV-1, HTLV-2, and HTLV-3 Proteases” (Life, 2021).

The target of one assay is HTLV-3 PR (Human T-cell leukemia virus 3, UniProt Q4U0X6). The assay is described as follows: Protease activity assay with oligopeptide substrates (RP-HPLC), HTLV-3 PR. Type of assay: biochemical, human T-cell leukemia virus type 3. Set-up: made in house; host or cells: E. coli BL21(DE3), pET11a. The conditions noted are these: pH 5.6, 37 °C. An excerpt: (§1) The oligopeptides representing the naturally occurring matrix/capsid (MA/CA), capsid/nucleocapsid (CA/NC), trans-frame protein/protease (TF1/PR), and PR/p1 cleavage sites of HTLV-1, -2, and -3 PRs were used as substrates. The oligopeptide substrates representing the natural sequences of HTLV PRs were ordered from BioBasic, while the oligopeptide substrates representing naturally occurring cleavage sites of various viruses, or the wild-type, the shortened, and the P4, P3, P2, P1, or P1′ variants of HTLV-1 MA/CA cleavage site (KTKVL*VVQPK) were in-house stocks. All peptides were dissolved in distilled water.
Chain of HTLV-3 PR (Q4U0X6 431-553): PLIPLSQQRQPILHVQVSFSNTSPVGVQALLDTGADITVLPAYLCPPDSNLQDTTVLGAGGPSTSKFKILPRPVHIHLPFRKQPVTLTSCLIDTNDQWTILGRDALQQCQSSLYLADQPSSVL
(§2) For kinetic measurements, we applied 10 µL 2× incubation buffer (0.5 M K3PO4, 4 M NaCl, 10 v/v% glycerol, 10 mM DTT, pH 5.6), 5 µL of HTLV-1, HTLV-2, or HTLV-3 PR (final concentration of the active enzyme was in 0.1–34.4 nM), and 0.5–5 µL oligopeptide substrate representing HTLV PR natural cleavage sites (0.05–1.10 mM final concentration). The final volume of the reaction mixture was set to 20 µL with distilled water if it was necessary. The reactions were initiated by the addition of the enzyme, were incubated at 37 °C for 0.5–4 h, and stopped by the addition of 180 µL 1 v/v% TFA. For substrates representing natural cleavage sites of retroviruses other than HTLV-1, -2, and -3 PRs (HIV-1, equine infectious anemia virus (EIAV), Rous sarcoma virus (RSV), mouse mammary tumor virus (MMTV), Mason-Pfizer monkey virus (MPMV), and murine leukemia virus (MuLV) and BLV) in a longer incubation time (24 h) was also applied. The cleavage products were separated by using a Nova-Pack C18 RP-HPLC column (3.9 mm × 150 mm, Waters Associates Inc, Milford, MA, USA) on HPLC (Merck-Hitachi LaChrom). Water-acetonitrile gradient (0–100%) was used for separation in the presence of 0.05% TFA at 2 mL/min flow rate. The kinetic parameters were determined by fitting the data—obtained at less than 20% substrate hydrolysis—to the Michaelis–Menten equation. The Gaussian equation was used to determine pH optimum and exponential growth equation for determination of optimal NaCl concentration, while linear regression was applied to plot the dependence of enzyme activity on temperature. Prism8 software (GraphPad Software Inc., San Diego, CA, USA) was used for evaluation. The kcat/KM catalytic constants were calculated based on the active enzyme concentration, which was determined by active site titration using the method described previously.

The target in the next assay is HTLV-2 PR (Human T-cell leukemia virus 2, UniProt P03363). In words: Protease activity assay with oligopeptide substrates (RP-HPLC), HTLV-2 PR. Also noted: made in house; host or cells: E. coli BL21(DE3). The format is biochemical, human T-cell leukemia virus type 2. The conditions noted are these: pH 5.6, 37 °C.
Chain of HTLV-2 PR (P03363 447-571): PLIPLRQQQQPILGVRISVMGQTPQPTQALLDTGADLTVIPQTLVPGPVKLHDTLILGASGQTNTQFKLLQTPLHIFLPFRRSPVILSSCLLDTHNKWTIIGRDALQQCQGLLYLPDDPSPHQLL
Description: as §1, §2

For another assay, the system named is HTLV-1 PR. The conditions noted are these: cited from earlier work. An excerpt: Table 2 Catalytic efficiencies of HTLV PRs on different substrates representing natural cleavage site sequences. Cleavage sites are labelled by asterisks within the sequences. Abbreviations: MA (matrix), CA (capsid), NC (nucleocapsid), and TF1 (trans-frame 1). | column: kcat/KM [mM^−1 s^−1] / HTLV-1 PR || Table 3 Catalytic efficiencies of HTLV PRs on different substrates representing natural cleavage site sequences of viruses other than HTLV. Cleavage sites are labelled by an asterisk within the sequences. Abbreviations: MA (matrix), CA (capsid), NC (nucleocapsid), TF (transframe), RT (reverse-transcriptase), and IN (integrase). | column: Substrate; kcat/KM (mM^−1 s^−1) / HTLV-1 PR ^1

Another assay concerns HIV-1 PR. The conditions noted are these: cleavage sites of viruses other than HTLV, retrieved from the literature, ref [28]; cited from earlier work. An excerpt: Table 3 Catalytic efficiencies of HTLV PRs on different substrates representing natural cleavage site sequences of viruses other than HTLV. Cleavage sites are labelled by an asterisk within the sequences. Abbreviations: MA (matrix), CA (capsid), NC (nucleocapsid), TF (transframe), RT (reverse-transcriptase), and IN (integrase). | column: kcat/KM (mM^−1 s^−1) / HIV-1 PR ^1

Setting [1] is: cleavage sites of viruses other than HTLV, longer incubation time (24 h) also applied.
[2] abbreviates: cleavage sites of viruses other than HTLV, retrieved from the literature, ref [28].
Setting [3] is: natural HTLV cleavage sites, substrate 0.05–1.10 mM, 2× buffer 0.5 M K3PO4, 4 M NaCl, 10 v/v% glycerol, 10 mM DTT, 0.5–4 h.
[4] abbreviates: natural HTLV-1 cleavage site substrates, previously reported values, ref [34].

Where two headings read alike, the source gives them in different places.

Turning to “AKLVL*AQLSK [EIAV PR/RT, oligopeptide substrate AKLVL*AQLSK]”, the catalytic efficiency (kcat/KM) (in general, the second-order rate constant that governs catalysis at low substrate concentration) on HTLV-3 PR (setting [1]) was “not cleaved”; on HTLV-2 PR (setting [1]), “not cleaved”; with HTLV-1 PR (setting [2]) it was “not cleaved”; with HIV-1 PR it was 13400 M⁻¹ s⁻¹.

For “APQVL*PVMHP [HTLV-1 MA/CA, oligopeptide substrate APQVL*PVMHP]”, the kcat/KM at HTLV-3 PR (setting [3]) was 32500 ± 6700 M⁻¹ s⁻¹; at HTLV-2 PR (setting [3]), 5500 ± 1000 M⁻¹ s⁻¹; in the assay with HTLV-1 PR (setting [4]), 85.2 ± 26.1 ^1 mM^−1 s^−1.

“CTLNF*PISP [HIV-1 PR/RT, oligopeptide substrate CTLNF*PISP]”: the specificity constant (kcat/KM) result at HTLV-3 PR (setting [1]) is “not cleaved”; at HTLV-2 PR (setting [1]), “not cleaved”; in the assay with HTLV-1 PR (setting [2]), “not cleaved”; with HIV-1 PR it was 24100 M⁻¹ s⁻¹.

Consider “DELIL*PVKRK [MMTV P3/P8, oligopeptide substrate DELIL*PVKRK]”, for which the kcat/KM result is “not cleaved” on HTLV-3 PR (setting [1]), “not cleaved” on HTLV-2 PR (setting [1]), 2.6 mM⁻¹ s⁻¹ in the assay on HTLV-1 PR (setting [2]) and 1500 M⁻¹ s⁻¹ in the assay with HIV-1 PR.

Take “DPASIL*PVIP [HTLV-1 TF1/PR, oligopeptide substrate DPASIL*PVIP]”: the kcat/KM at HTLV-3 PR (setting [3]) is 1200 ± 400 M⁻¹ s⁻¹; at HTLV-2 PR (setting [3]), 400 ± 100 M⁻¹ s⁻¹; in the assay on HTLV-1 PR (setting [4]), 3.8 ± 0.6 ^1 mM^−1 s^−1.

As for “DSKAF*LADTW [MMTV PP21/P3, oligopeptide substrate DSKAF*LADTW]”, the kcat/KM entry on HTLV-3 PR (setting [1]) is “not cleaved”; at HTLV-2 PR (setting [1]), “not cleaved”; with HTLV-1 PR (setting [2]) it was “not cleaved”; with HIV-1 PR it was 7500 M⁻¹ s⁻¹.

“ERQAN*FLGKI [HIV-1 NC/P1, oligopeptide substrate ERQAN*FLGKI]”: the catalytic efficiency (kcat/KM) result on HTLV-3 PR (setting [1]) was “not cleaved”; on HTLV-2 PR (setting [1]) it was “not cleaved”; with HTLV-1 PR (setting [2]), “not cleaved”; in the assay with HIV-1 PR, 1000 M⁻¹ s⁻¹.

“IAAAM*SSAIQ [RSV CA/P3, oligopeptide substrate IAAAM*SSAIQ]”: the kcat/KM result on HTLV-3 PR (setting [1]), at HTLV-2 PR (setting [1]), with HTLV-1 PR (setting [2]) and in the assay on HIV-1 PR was “not cleaved” throughout.

As to “IQPLIM*AVVNR [RSV P3/NC, oligopeptide substrate IQPLIM*AVVNR]”, the kcat/KM entry is “not cleaved” at HTLV-3 PR (setting [1]), “not cleaved” at HTLV-2 PR (setting [1]), more than 100 mM⁻¹ s⁻¹ in the assay on HTLV-1 PR (setting [2]) and 318000 M⁻¹ s⁻¹ in the assay with HIV-1 PR.

Turning to “KARVL*AEAMS [HIV-1 CA/P2, oligopeptide substrate KARVL*AEAMS]”, the catalytic efficiency (kcat/KM) result at HTLV-3 PR (setting [1]) was “not cleaved”; on HTLV-2 PR (setting [1]), “not cleaved”; in the assay with HTLV-1 PR (setting [2]) it was “not cleaved”; with HIV-1 PR it was 90000 M⁻¹ s⁻¹.

On to “KEEIM*LAYQG [EIAV RT/RH, oligopeptide substrate KEEIM*LAYQG]”, for which the kcat/KM result was “not cleaved” at HTLV-3 PR (setting [1]), “not cleaved” on HTLV-2 PR (setting [1]), less than 0.01 mM⁻¹ s⁻¹ in the assay on HTLV-1 PR (setting [2]) and 18300 M⁻¹ s⁻¹ in the assay on HIV-1 PR.

As to “KGPPVIL*PIQAP [HTLV-1 PR/P1, oligopeptide substrate KGPPVIL*PIQAP]”, the kcat/KM on HTLV-3 PR (setting [3]) was 238400 ± 60100 M⁻¹ s⁻¹; at HTLV-2 PR (setting [3]) it was 20600 ± 2800 M⁻¹ s⁻¹; in the assay with HTLV-1 PR (setting [4]) it was 288.3 ± 73.6 ^1 mM^−1 s^−1.

On to “KQPAIL*VHTPG [BLV CA/NC, oligopeptide substrate KQPAIL*VHTPG]”, for which the catalytic efficiency (kcat/KM) result on HTLV-3 PR (setting [1]), at HTLV-2 PR (setting [1]), in the assay on HTLV-1 PR (setting [2]) and in the assay on HIV-1 PR was “not cleaved” in each case.

With “KTKVL*VVQPK [HTLV-1 CA/NC, oligopeptide substrate KTKVL*VVQPK]”, the kcat/KM on HTLV-3 PR (setting [3]) is 30100 ± 15400 M⁻¹ s⁻¹; at HTLV-2 PR (setting [3]), 67200 ± 33400 M⁻¹ s⁻¹; in the assay on HTLV-1 PR (setting [4]), 150.6 ± 15.1 ^1 mM^−1 s^−1.

As for “LTFTF*PVVFMRR [MMTV N/CA, oligopeptide substrate LTFTF*PVVFMRR]”, the kcat/KM result at HTLV-3 PR (setting [1]) is “not cleaved”; on HTLV-2 PR (setting [1]) it was “not cleaved”; with HTLV-1 PR (setting [2]) it was 0.01 mM⁻¹ s⁻¹; in the assay on HIV-1 PR, 900 M⁻¹ s⁻¹.

As for “PKDIF*PVTET [MPMV P12/CA, oligopeptide substrate PKDIF*PVTET]”, the specificity constant (kcat/KM) result is “not cleaved” at HTLV-3 PR (setting [1]), “not cleaved” on HTLV-2 PR (setting [1]), 0.2 mM⁻¹ s⁻¹ in the assay on HTLV-1 PR (setting [2]) and 200 M⁻¹ s⁻¹ in the assay with HIV-1 PR.

For the substance “PPAIL*PIISE [BLV MA/CA, oligopeptide substrate PPAIL*PIISE]”, the kcat/KM entry is “not cleaved” at HTLV-3 PR (setting [1]), “not cleaved” at HTLV-2 PR (setting [1]), 164.5 mM⁻¹ s⁻¹ in the assay with HTLV-1 PR (setting [2]) and 300 M⁻¹ s⁻¹ in the assay on HIV-1 PR.

As for “PPAVS*LAMTM [RSV NC/PR, oligopeptide substrate PPAVS*LAMTM]”, the specificity constant (kcat/KM) result at HTLV-3 PR (setting [1]) was “not cleaved”; at HTLV-2 PR (setting [1]), “not cleaved”; in the assay on HTLV-1 PR (setting [2]) it was “not cleaved”; in the assay with HIV-1 PR it was 130 M⁻¹ s⁻¹.

As to “PPMVG*VLDAP [BLV PR/P13, oligopeptide substrate PPMVG*VLDAP]”, the kcat/KM entry at HTLV-3 PR (setting [1]) is “not cleaved”; at HTLV-2 PR (setting [1]), “not cleaved”; in the assay on HTLV-1 PR (setting [2]) it was 0.7 mM⁻¹ s⁻¹; in the assay on HIV-1 PR it was 40 M⁻¹ s⁻¹.

In the case of “PPVGFAG*AMA [MMTV P8/N, oligopeptide substrate PPVGFAG*AMA]”, the kcat/KM result is “not cleaved” on HTLV-3 PR (setting [1]), “not cleaved” at HTLV-2 PR (setting [1]), “not cleaved” in the assay with HTLV-1 PR (setting [2]) and less than 10 M⁻¹ s⁻¹ in the assay with HIV-1 PR.

For the substance “PPYVG*SGLYP [RSV P2B/P10, oligopeptide substrate PPYVG*SGLYP]”, the kcat/KM entry on HTLV-3 PR (setting [1]), on HTLV-2 PR (setting [1]), in the assay with HTLV-1 PR (setting [2]) and with HIV-1 PR was “not cleaved” in each case.

As to “PRSSLY*PALTP [MuLV MA/P12, oligopeptide substrate PRSSLY*PALTP]”, the kcat/KM result on HTLV-3 PR (setting [1]) was “not cleaved”; on HTLV-2 PR (setting [1]) it was “not cleaved”; in the assay on HTLV-1 PR (setting [2]), “not cleaved”; in the assay with HIV-1 PR, 200 M⁻¹ s⁻¹.

Regarding “PSEEY*PIMID [EIAV MA/CA, oligopeptide substrate PSEEY*PIMID]”, the kcat/KM entry at HTLV-3 PR (setting [1]) is “not cleaved”; at HTLV-2 PR (setting [1]), “not cleaved”; in the assay with HTLV-1 PR (setting [2]), 0.7 mM⁻¹ s⁻¹; in the assay with HIV-1 PR it was 15200 M⁻¹ s⁻¹.

For “PVVAM*PVVIK [RSV P10/CA, oligopeptide substrate PVVAM*PVVIK]”, the kcat/KM result at HTLV-3 PR (setting [1]) is “not cleaved”; on HTLV-2 PR (setting [1]) it was “not cleaved”; in the assay with HTLV-1 PR (setting [2]) it was 0.1 mM⁻¹ s⁻¹; in the assay with HIV-1 PR, “not cleaved”.
